Data: US20160158376A1 (priority 2013, published 2016)
Like-named read-outs stand apart in the source and are kept apart here.

Assays:
[1] = mouse; Proffitt et al. 1991; cited from earlier work
Candida albicans = assay: Pharmacodynamic assay, immunodepleted mice infected with Candida albicans; assay type: in vivo; conditions: for Number of animal death: mice (20 per group), tail vein, day 7
From the text: Method: Mice whose immunity was depleted by conventional method (white cell count≦100) were infected with Candida albicans, and randomly divided into eight groups, 20 per group. Mice received the treatment outlined in the following table by injection through the tail vein. […] Continuously monitoring animal survival for seven days, and counting the number of dead mice on day 7.

[2] = rat, cited from earlier work
[3] = cited from earlier work
[4] = Solubility assay of the polyconjugate; assay type: physicochemical; conditions: water, room temperature (22˜25° C.), as active drug

Compound: CC1O[C@@H](O[C@H]2/C=C/C=C/C=C/C=C/C=C/C=C/C=C/[C@H](C)[C@@H](O)[C@@H](C)[C@H](C)OC(=O)C[C@H](O)C[C@H](O)CC[C@@H](O)[C@H](O)C[C@H](O)C[C@]3(O)C[C@H](O)[C@@H](C(=O)O)[C@H](C2)O3)C(O)C(N)[C@@H]1O (stereo partly drawn) [amphotericin B]
- LD50 [1]: 2.3 mg/kg
- Number of animal death (Candida albicans; 1 mg/kg as amphotericin B): 10 dead
- Number of animal death (Candida albicans; 2 mg/kg as amphotericin B): 3 dead
- 50% effective dose (Candida albicans; mice infected with Candida albicans, survival at day 7, as amphotericin B): about 1 mg/kg
- LD50 ([2]; intravenous, Pfizer material safety data sheet): 1.6 mg/kg
- LD50 ([2]; Proffitt et al. 1991): 1.6 mg/kg
- solubility in water [3]: insoluble

Compound: amphotericin B-hydroxyethyl starch polyconjugate [Preparation 22]
- solubility (amount of the soluble active drug) [4]: 0.026%

Compound: poly-aspartic acid-amphotericin B polyconjugate [Preparation 1]
- Number of animal death (Candida albicans; 0.25 mg/kg as amphotericin B): 5 dead
- Number of animal death (Candida albicans; 0.5 mg/kg as amphotericin B): 0 dead
- Number of animal death (Candida albicans; 1 mg/kg as amphotericin B): 0 dead
- Number of animal death (Candida albicans; 2 mg/kg as amphotericin B): 0 dead
